# Test results taken from patent US20230217925A1, “FENCLORIM SEED TREATMENT AS A BIOSTIMULANT” (THE BOARD TRUSTEES OF THE UNIVERSITY OF ARKANSAS, priority 2022, published 2023).
# Key:
# Type in all cases: in vivo
# [1] = test system: four rice cultivars (Diamond, Titan, RT7521FP, and RT7321FP); assay: Fenclorim dose-response study, results over all four cultivars; details: for Increase over control % (groundcover): averaged over all four cultivars, 45 days after emergence
# Description: (§1) On Apr. 17, 2021, an experiment was initiated to identify the best rate at which to apply fenclorim as a rice seed treatment. The experiment was conducted using four rice cultivars (Diamond, Titan, RT7521FP, and RT7321FP) and 5 rates of the fenclorim (0, 0.625, 1.25, 2.5, and 5 g/kg seed). Seeds were treated using the aforementioned methods with all seeds having the same base seed treatment. […] At 2.5 g fenclorim per kg of seed, there was a 22% increase (averaged across cultivars) in groundcover compared to the no fenclorim treatment at 45 days after emergence. In this study, rice plant heights and shoot numbers were measured 30 days after emergence. The heights of five random plants were measured per plot and shoot numbers were measured in two 0.5 m sections of row.
# [2] = test system: rice seeds of the cultivar Diamond; assay: Greenhouse biostimulant experiment; details: 2.5 g/kg of seed vs 0, 30 days after emergence, silt loam soil
# Description: A greenhouse biostimulant experiment was performed in 2 experimental runs. Fenclorim was applied to rice seed at 0 or 2.5 g/kg of seed. Five rice seeds of the cultivar Diamond were planted in silt loam soil in 4″ diameter pots 0.5″ apart. At least 9 replications were performed per run. At 14 days after emergence, emerged rice was counted and thinned to 3 plants per pot. Data were collected 30 days after emergence. The leaf area of the rice plants in each pot was determined. Groundcover was determined based on the number of green leaf pixels from an overhead image. Shoot (aboveground) and root (belowground) biomass were determined, and total biomass was determined by adding the mass of the roots and shoots.
# rice cultivar Titan = assay: Fenclorim dose-response study, seed treatment (groundcover, shoot numbers); details: for Shoots (%), percentage of shoot numbers produced by control plants: 30 days after emergence; for Groundcover (%): 45 days after emergence
# Description: as §1
# rice cultivar RT7521FP = assay: as above; details: for Shoots (%), percentage of shoot numbers produced by control plants: 30 days after emergence; for Groundcover (%): 45 days after emergence
# Description: as §1
# rice cultivar Diamond = assay: as above; details: for Shoots (%), percentage of shoot numbers produced by control plants: 30 days after emergence; for Groundcover (%): 45 days after emergence
# Description: as §1
# rice cultivar RT7321FP = assay: as above; details: for Shoots (%), percentage of shoot numbers produced by control plants: 30 days after emergence; for Groundcover (%): 45 days after emergence
# Description: as §1
# [3] = test system: sixteen of the most common rice cultivars planted in the state of Arkansas; assay: Cultivar screening, fenclorim seed treatment, field plots, aerial image groundcover; details: 2.5 g fenclorim per kg of seed vs 0; 45 days after emergence; averaged across all cultivars
# Description: (§2) An experiment was conducted to screen for the effects of a fenclorim seed treatment across sixteen of the most common rice cultivars planted in the state of Arkansas. The cultivars screened in the study included ten long-grain inbreds, three medium-grain inbreds, and three long-grain hybrids: ‘Diamond’, ‘Jewel’, ‘DG363L’, ‘CLL 15’, ‘CLL 16’, ‘CLL 17’, ‘PVL02’, ‘PVL03’, ‘RTV7231MA’, ‘CLJ 01’, ‘Jupiter’, ‘Titan’, ‘Lynx’, ‘RT753XP’, ‘RT7321FP’, and ‘RT7521FP’. All seeds were treated with a base treatment comprising a standard rice insecticide (i.e., NipsIt®) and fungicide (i.e., a combination of metalaxyl, fludioxonil, carboxin, and thiram) using a commercial seed treater. Additionally, each seed was treated with 0 or 2.5 g fenclorim per kg of seed. Seed was planted on Apr. 19, 2021, utilizing nine-row plots (5.2 m by 3 m). Aerial images were captured using a DJI Mavic Air 2 45 days after emergence, and images were analyzed using Turf Analyzer.
# Diamond rice = Diamond rice evaluation in heavy clay soil, drone image groundcover; details: 2.5 g fenclorim per kg of seed vs 0, 45 days after emergence
# Description: as §2
# An experiment was conducted to test whether fenclorim seed treatment would influence rice growth in a heavy clay soil. Diamond rice was planted on Apr. 22, 2021, using the same practices as the previous experiment, including a treatment with 0 or 2.5 g fenclorim per kg of seed.
structure (smiles),measurement,setting,value
"Clc1cc(Cl)nc(-c2ccccc2)n1 [fenclorim, 4,6-dichloro-2-phenylpyrimidine]",rice plant heights,"[1]; 0.625-5 g/kg seed vs 0, 30 days after emergence, five random plants per plot",not influenced
same,"shoot number, effect as the seed treatment rate increased","[1]; 0.625-5 g/kg seed vs 0, 30 days after emergence, two 0.5 m sections of row",an increase in shoot number was observed
same,Increase over control % (groundcover),[1]; 0.625 g/kg seed,12%
same,Increase over control % (groundcover),[1]; 1.25 g/kg seed,18%
same,Increase over control % (groundcover),[1]; 2.5 g/kg seed,22%
same,Increase over control % (groundcover),[1]; 5.0 g/kg seed,23%
same,increase in aboveground biomass,[2],14%
same,increase in belowground biomass,[2],63%
same,increase in groundcover,[2],15%
same,increase in leaf area,[2],23%
same,increase in total biomass,[2],40%
same,"Shoots (%), percentage of shoot numbers produced by control plants",rice cultivar Titan; 0.625 g/kg seed,111.1%
same,Groundcover (%),rice cultivar Titan; 0.625 g/kg seed,49.3%
same,"Shoots (%), percentage of shoot numbers produced by control plants",rice cultivar Titan; 1.25 g/kg seed,110.5%
same,Groundcover (%),rice cultivar Titan; 1.25 g/kg seed,47.3%
same,"Shoots (%), percentage of shoot numbers produced by control plants",rice cultivar Titan; 2.5 g/kg seed,105.3%
same,Groundcover (%),rice cultivar Titan; 2.5 g/kg seed,48.1%
same,"Shoots (%), percentage of shoot numbers produced by control plants",rice cultivar Titan; 5.0 g/kg seed,102.4%
same,Groundcover (%),rice cultivar Titan; 5.0 g/kg seed,50.6%
same,"Shoots (%), percentage of shoot numbers produced by control plants",rice cultivar RT7521FP; 0.625 g/kg seed,110.7%
same,Groundcover (%),rice cultivar RT7521FP; 0.625 g/kg seed,51.8%
same,"Shoots (%), percentage of shoot numbers produced by control plants",rice cultivar RT7521FP; 1.25 g/kg seed,112.4%
same,Groundcover (%),rice cultivar RT7521FP; 1.25 g/kg seed,52.5%
same,"Shoots (%), percentage of shoot numbers produced by control plants",rice cultivar RT7521FP; 2.5 g/kg seed,108.8%
same,Groundcover (%),rice cultivar RT7521FP; 2.5 g/kg seed,51.2%
same,"Shoots (%), percentage of shoot numbers produced by control plants",rice cultivar RT7521FP; 5.0 g/kg seed,111.9%
same,Groundcover (%),rice cultivar RT7521FP; 5.0 g/kg seed,55.9%
same,"Shoots (%), percentage of shoot numbers produced by control plants",rice cultivar Diamond; 0.625 g/kg seed,98.6%
same,Groundcover (%),rice cultivar Diamond; 0.625 g/kg seed,47.3%
same,"Shoots (%), percentage of shoot numbers produced by control plants",rice cultivar Diamond; 1.25 g/kg seed,111.1%
same,Groundcover (%),rice cultivar Diamond; 1.25 g/kg seed,54.6%
same,"Shoots (%), percentage of shoot numbers produced by control plants",rice cultivar Diamond; 2.5 g/kg seed,106.9%
same,Groundcover (%),rice cultivar Diamond; 2.5 g/kg seed,54.2%
same,"Shoots (%), percentage of shoot numbers produced by control plants",rice cultivar Diamond; 5.0 g/kg seed,100%
same,Groundcover (%),rice cultivar Diamond; 5.0 g/kg seed,52.2%
same,"Shoots (%), percentage of shoot numbers produced by control plants",rice cultivar RT7321FP; 0.625 g/kg seed,115.2%
same,Groundcover (%),rice cultivar RT7321FP; 0.625 g/kg seed,41.2%
same,"Shoots (%), percentage of shoot numbers produced by control plants",rice cultivar RT7321FP; 1.25 g/kg seed,110.3%
same,Groundcover (%),rice cultivar RT7321FP; 1.25 g/kg seed,46.0%
same,"Shoots (%), percentage of shoot numbers produced by control plants",rice cultivar RT7321FP; 2.5 g/kg seed,108.4%
same,Groundcover (%),rice cultivar RT7321FP; 2.5 g/kg seed,53.9%
same,"Shoots (%), percentage of shoot numbers produced by control plants",rice cultivar RT7321FP; 5.0 g/kg seed,112.3%
same,Groundcover (%),rice cultivar RT7321FP; 5.0 g/kg seed,50.3%
same,increase in groundcover,[3],7%
same,increase in groundcover,Diamond rice,4%
